Test results: patent US6218378A, “Anti-tumor agents comprising pyridyl-substituted metal-diphosphine complex” (priority 1994, dated 2001)

Experiments:
Format in all cases: cell-based, human
CI-80-13S = assay: cell survival after drug treatment ([methyl-3H]-thymidine)
Excerpt: (§1) In FIGS. 1-4 and Table 1, reference is made to the cell lines HeLa, HeLa-S1a, JAM, CI-80-13S and MM96.
(§2) The origins of the human melanoma cell line MM96 has been described in Whitehead et al., 1973, Pigment Cell 1 383-389. The cell line JAM is described in Ward et al., 1987, Cancer Res. 47 2662-2667. The origin of the ovarian tumour line CI-80-13S has been described in Bertoncello et al., 1985, Aust. J. Exp. Biol. Med. Sci. 63 241-243. The origin of the cervical carcinoma cell line HeLa has been described in Maynard et al., 1986, Cancer Res. 46 5009-5093. The subclone HeLa-S1a was derived by stably transfecting HeLa with PAI-2 cDNA described in Schleuning et al., 1987, Mol. Cell. Biol. 7 4564-4567 in the sense orientation under the control of the cyto-megalovirus (CMV) promoter. The stably infected subclone was isolated following G418 selection and expression of the PAI-2 transgene characterised by immunoblot analysis and quantitated by ELISA. All of these cell lines have been used before for carrying out cell survival assays referred to in FIGS. 1-4. Cells were cultured at 37° in 5% CO2 /air in Roswell Park Memorial Institute medium 1640 containing 5% foetal calf serum, 100 μg/ml streptomycin, 100 IU/ml penicillin, 1 mM pyruvate, 50 μM nicotinamide and 3 mM HEPES.
(§3) Cells were seeded in microtitre plates (lowest number for fastest growing cells: 1000 HeLa, 2000 MM96, […] CI-80-13S cells per 6 mm well in 100 μl), normally but not necessarily allowed to attach overnight, then 5 dilutions of the drug were added to duplicate wells. After an overnight incubation to equilibrate the pH, the lids were quickly taped around the edge to prevent evaporation. The plates were incubated for 5-7 days, until the controls were nearly confluent. Cell growth/morphology was scored at each dose visually (inverted microscope). The medium was then replaced by 50 μl fresh medium containing 2 u/Ci/ml [methyl-3H]-thymidine (5 Ci/mmol; Radiochemical Centre, Amersham, Bucks., U.K.) and incubated for 2-4 hr. The cells were washed with PBS (0.1 M NaCl, 50 mM phosphate, pH 7.2), detached with 100 μl of PBS containing 0.2 mg/ml trypsin and 10 mM EDTA, and washed onto a glass fibre GF/a filter mat with water using a cell harvester. Later, wells were checked under the microscope to ensure complete detachment and washout. Radioactivity was determined in an LKB Beta Plate counter and the results plotted as log % control cpm versus dose. The ID50 (dose required to give 50% survival) was interpolated from this survival curve.

HeLa-S1a = assay: as above
Excerpt: as §1, §2, §3

HeLa = assay: as above
Excerpt: as §1, §2, §3

MM96 = assay: as above
Excerpt: as §1, §2, §3

41M-cisR = assay: cytotoxicity assay, sulforhodamine B; details: 96 hrs, mean ± SD or individual values when n<3
Method: (§4) In Table 2, reference is made to cell lines 41M, 41M-cisR, SKOV-3, CH1 and CH1-cisR.
(§5) J. Cancer 69 1-7. The characteristics of the cell line pairs CH1/CH1 cisR, 41M/41McisR and 41M/SKOV3 are described in Table 3.
(§6) The cytotoxicity assay used sulforhodamine B which stains the basic amino acids. Cells (5000 or 2500 for SKOV-3) were seeded into 96 well microtitre plates (Linbro, Flow Laboratories Inc., USA) in 0.1 ml of medium. After an overnight incubation, the metal phosphine compounds were dissolved in 0.9% NaCl or ethanol and diluted with medium, were added at concentrations ranging from 0.005 to 50 μM to quadruplicate wells. After 96 hrs incubation, the medium was removed and cells were fixed in 0.2 ml of cold 10% (w/v) trichloroacetic acid (May & Baker Ltd., Dagenham, England) for 30 mins at 4° C. The plates were washed five times with tap water. Then 0.1 ml of 0.4% (w/v) sulforhodamine B (Sigma Chemical Co., St. Louis, USA) dissolved in 1% acetic acid (Ajax Chemicals, Australia) was added to the wells and left to stand at room temperature for 15 mins. The plates were then washed five times with 1% acetic acid and left to dry overnight. The next morning, 0.1 ml of 10 mM Tris buffer (Sigma Chemical Co., St. Louis, USA) was then added to each plate to solubilise the dye. Absorbance was read at a wavelength of 570 nm using a 96 well plate reader Dynatech MR 5000 plate reader. Absorbance of treatment cells was expressed as a percentage of positive (drug-free) controls. The results were plotted as percentage growth versus drug concentration.

41M = assay: cytotoxicity assay, sulforhodamine B; details: 96 hrs, mean ± SD or individual values when n<3
Method: as §4, §5, §6

CH1-cisR = assay: cytotoxicity assay, sulforhodamine B; details: 96 hrs, mean ± SD or individual values when n<3
Method: as §4, §5, §6

CH1 = assay: cytotoxicity assay, sulforhodamine B; details: 96 hrs, mean ± SD or individual values when n<3
Method: as §4, §5, §6

SKOV-3 = assay: cytotoxicity assay, sulforhodamine B; details: 96 hrs, mean ± SD or individual values when n<3
Method: as §4, §5, §6

In the case of `[Cl-].c1cc([P+]2(c3ccncc3)CC[P+](c3ccncc3)(c3ccncc3)[Au-3]23[P+](c2ccncc2)(c2ccncc2)CC[P+]3(c2ccncc2)c2ccncc2)ccn1` [[Au(d4pype)2]Cl], the “cytotoxicity (FIGS. 1 and 2)” value (CI-80-13S; CI-80-13S ovarian in vitro) is reported as “selectively cytotoxic”, the IC50 (CI-80-13S; CI-80-13S, mean ± SD or individual values when n<3, 5-7 days) is reported as 320 ± 150 nM and the “cytotoxicity (FIGS. 1 and 2)” value (HeLa-S1a; HeLa-S1a in vitro) is reported as “selectively cytotoxic”. The IC50 (HeLa-S1a; HeLa-S1a, mean ± SD or individual values when n<3, 5-7 days) was 300 nM, the “cytotoxicity (FIGS. 1 and 2)” value (HeLa; HeLa cervical carcinoma in vitro) was “inactive” and the IC50 (HeLa; HeLa, mean ± SD or individual values when n<3, 5-7 days) was over 10000 nM. For the same compound, the IC50 (MM96; MM96L, mean ± SD or individual values when n<3, 5-7 days) was over 10000 nM, the “cytotoxicity (FIGS. 1 and 2)” value (MM96; MM96 melanoma in vitro) was “inactive” and the IC50 (41M-cisR) was over 100000 nM. It also gave an IC50 (41M) of over 100000 nM, an IC50 (CH1-cisR) of 600 ± 200 nM and an IC50 (CH1) of 400 ± 100 nM. It also gave an IC50 (SKOV-3) of over 100000 nM.
